Measurements as given in PubChem BioAssay AID743340 (Broad Institute, 2014).
Inconclusive results are not listed. The source made the active and inactive calls.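 Rule for the calls: active = compounds whose fitted AC50 for signal loss is at most twice the top valid dose tested; inconclusive = flat curve with 30 to 70% inhibition, or poor fit; inactive = the rest.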

Molecular target: Leucyl-cystinyl aminopeptidase (Mus musculus) (UniProt Q8C129)
Experiment: IRAP inhibitors, dose response, selectivity assay for ERAP1 modulator project, biochemical, Leu-AMC fluorescence, cherry-picked samples, set 2 (AID 743340)
Settings: purified IRAP, Leu-AMC cleavage fluorescence, 1 h

Sequence of Leucyl-cystinyl aminopeptidase (Mus musculus) (Q8C129 whole entry, looked up): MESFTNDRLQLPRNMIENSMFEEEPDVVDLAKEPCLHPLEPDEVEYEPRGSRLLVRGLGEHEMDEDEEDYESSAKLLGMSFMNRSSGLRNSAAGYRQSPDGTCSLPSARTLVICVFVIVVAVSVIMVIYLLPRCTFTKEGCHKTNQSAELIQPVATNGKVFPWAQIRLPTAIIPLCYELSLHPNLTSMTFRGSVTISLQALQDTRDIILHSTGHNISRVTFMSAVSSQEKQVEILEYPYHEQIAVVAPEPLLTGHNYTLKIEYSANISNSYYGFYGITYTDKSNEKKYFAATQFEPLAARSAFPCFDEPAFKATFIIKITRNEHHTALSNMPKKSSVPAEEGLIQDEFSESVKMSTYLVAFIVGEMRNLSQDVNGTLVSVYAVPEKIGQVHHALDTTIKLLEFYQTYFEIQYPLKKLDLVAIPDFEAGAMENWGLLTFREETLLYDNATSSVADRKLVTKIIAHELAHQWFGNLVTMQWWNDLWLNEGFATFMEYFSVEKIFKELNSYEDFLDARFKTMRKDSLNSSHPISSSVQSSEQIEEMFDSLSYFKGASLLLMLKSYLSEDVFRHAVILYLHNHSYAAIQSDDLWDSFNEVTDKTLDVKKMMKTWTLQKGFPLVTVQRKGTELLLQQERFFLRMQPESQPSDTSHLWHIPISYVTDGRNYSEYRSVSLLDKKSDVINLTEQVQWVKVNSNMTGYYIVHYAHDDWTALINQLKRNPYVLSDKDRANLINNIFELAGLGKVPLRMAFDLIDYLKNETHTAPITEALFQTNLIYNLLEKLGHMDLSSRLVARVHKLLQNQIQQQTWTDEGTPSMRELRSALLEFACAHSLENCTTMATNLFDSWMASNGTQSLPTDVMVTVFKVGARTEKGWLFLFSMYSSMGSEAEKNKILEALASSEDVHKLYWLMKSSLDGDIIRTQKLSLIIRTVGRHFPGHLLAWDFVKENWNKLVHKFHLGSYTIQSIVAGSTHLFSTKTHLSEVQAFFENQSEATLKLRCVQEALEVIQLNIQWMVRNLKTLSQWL

| Structure (SMILES) | AC50 |
| --- | --- |
| CCCN(C)C[C@@H]1OCCCC[C@@H](C)Oc2ccc(NS(=O)(=O)c3ccc(OC)cc3)cc2C(=O)N([C@H](C)CO)C[C@@H]1C | 11.2 µM |
| O=C(O)c1ccccc1NS(=O)(=O)c1cccc(-n2sc3ccccc3c2=O)c1 | > 22 µM (inactive) |
| CC(C)[C@@H](C(=O)N[C@@H](CCc1ccc(O)cc1)C(=O)O)N(C)C(=O)[C@H](CO)NC(=O)[C@@H](O)[C@H](N)CCCCCCCCl | 0.0449 µM |

Same assay, conditions: purified IRAP, Leu-AMC cleavage fluorescence, 1 h; at 5.6 µM (top of the series)

| Structure (SMILES) | activity change, negative = inhibition |
| --- | --- |
| COc1ccc(S(=O)(=O)N(C)C[C@@H]2Oc3ncccc3C(=O)N([C@H](C)CO)C[C@@H]2C)cc1 | inactive |

Same assay, conditions: purified IRAP, Leu-AMC cleavage fluorescence, 1 h; at 10 µM (top of the series)

| Structure (SMILES) | activity change, negative = inhibition |
| --- | --- |
| Cc1noc(C)c1S(=O)(=O)N(C)C[C@@H]1OCCCC[C@@H](C)Oc2ccc(NS(=O)(=O)c3cccs3)cc2C(=O)N([C@@H](C)CO)C[C@@H]1C | inactive |

Same assay, conditions: purified IRAP, Leu-AMC cleavage fluorescence, 1 h; at 11 µM (top of the series)

| Structure (SMILES) | activity change, negative = inhibition |
| --- | --- |
| C[C@@H]1CCCCO[C@@H](CN(C)Cc2ccccc2)[C@H](C)CN([C@H](C)CO)C(=O)c2cc(NS(=O)(=O)c3cccs3)ccc2O1 | inactive |
| COc1ccc(CN(C)C[C@H]2OCCCC[C@@H](C)Oc3ccc(NS(=O)(=O)c4cccs4)cc3C(=O)N([C@@H](C)CO)C[C@@H]2C)cc1 | inactive |
| O=C(O)c1cccc(NC(=O)c2ccccc2NC(=O)c2cccc([N+](=O)[O-])c2)c1 | inactive |
| Cc1noc(C)c1NC(=O)Nc1ccc2c(c1)C(=O)N([C@H](C)CO)C[C@@H](C)[C@@H](CN(C)Cc1ccc(C(F)(F)F)cc1)OCCCC[C@@H](C)O2 | inactive |
| O=C(C[C@H]1CC[C@H]2[C@@H](COC[C@@H](O)CN2C(=O)Nc2cccc(Cl)c2)O1)N1CCCCC1 | inactive |
| CCCN(C)C[C@@H]1OCCCC[C@@H](C)Oc2ccc(NS(=O)(=O)c3cccs3)cc2C(=O)N([C@H](C)CO)C[C@@H]1C | inactive |
| C[C@H]1CN([C@@H](C)CO)C(=O)c2cccc(NC(=O)Nc3ccc(C(F)(F)F)cc3)c2O[C@@H]1CN(C)C | inactive |
| COc1ccc(CN(C)C[C@@H]2OCCCC[C@H](C)Oc3ccc(NS(=O)(=O)c4cccs4)cc3C(=O)N([C@H](C)CO)C[C@@H]2C)cc1 | inactive |
| C[C@@H]1CCCCO[C@H](CN(C)Cc2ccc(C(=O)O)cc2)[C@@H](C)CN([C@H](C)CO)C(=O)c2cc(NC(=O)Nc3ccc(C(F)(F)F)cc3)ccc2O1 | inactive |
| C[C@@H]1CN([C@H](C)CO)C(=O)c2cccc(NC(=O)Nc3ccccc3)c2O[C@@H]1CN(C)Cc1ccc(C(=O)O)cc1 | inactive |
| COc1ccc(CN(C)C[C@@H]2OCCCC[C@@H](C)Oc3ccc(NS(=O)(=O)c4cccs4)cc3C(=O)N([C@H](C)CO)C[C@H]2C)cc1 | inactive |
| O=C(C[C@H]1CC[C@@H]2[C@H](COC[C@@H](O)CN2C(=O)Nc2cccc(Cl)c2)O1)N1CCCCC1 | inactive |
| Cc1ccc(S(=O)(=O)Nc2ccc3c(c2)C(=O)N([C@@H](C)CO)C[C@H](C)[C@H](CN(C)C)OCCCC[C@@H](C)O3)cc1 | inactive |
| COc1ccc(C(=O)O)cc1S(=O)(=O)Nc1cc(C(F)(F)F)ccc1N1CCCCC1 | inactive |
| O=C(C[C@@H]1CC[C@@H]2[C@H](COC[C@H](O)CN2C(=O)Nc2cccc(Cl)c2)O1)N1CCCCC1 | inactive |
| CC(=O)N1CCN(C(=O)C2(NC(=O)Nc3ccc(C)cc3)CCCCC2)CC1 | inactive |
| Cc1ccc(-c2cc(C(=O)N3CCCC3)c3ccccc3n2)s1 | inactive |
| C[C@@H]1CCCCO[C@@H](CN(C)CC2CC2)[C@@H](C)CN([C@H](C)CO)C(=O)c2cc(NS(=O)(=O)c3cccs3)ccc2O1 | inactive |
